Experimental data reported in patent EP3033337B1, “SUBSTITUTED IMIDAZOLES AS N-TYPE CALCIUM CHANNEL BLOCKERS” (Janssen Pharmaceutica NV, priority 2013, dated 2015).
Blank lines part the entries; values can stand above or below the compound they belong to.

What was measured:
[1] = biological target: T1, human N-type Ca channel (Homo sapiens, UniProt Q00975); test: Calcium influx assay (FDSS), KCl depolarization, Fluo8 dye; assay type: cell-based; parameters: host or cells: HEK 293; settings: HEK 293 cells expressing human N-type Ca channel; 100 mM KCl; read-out: N Type IC50 Data FDSS
T1 sequence (Q00975 whole entry): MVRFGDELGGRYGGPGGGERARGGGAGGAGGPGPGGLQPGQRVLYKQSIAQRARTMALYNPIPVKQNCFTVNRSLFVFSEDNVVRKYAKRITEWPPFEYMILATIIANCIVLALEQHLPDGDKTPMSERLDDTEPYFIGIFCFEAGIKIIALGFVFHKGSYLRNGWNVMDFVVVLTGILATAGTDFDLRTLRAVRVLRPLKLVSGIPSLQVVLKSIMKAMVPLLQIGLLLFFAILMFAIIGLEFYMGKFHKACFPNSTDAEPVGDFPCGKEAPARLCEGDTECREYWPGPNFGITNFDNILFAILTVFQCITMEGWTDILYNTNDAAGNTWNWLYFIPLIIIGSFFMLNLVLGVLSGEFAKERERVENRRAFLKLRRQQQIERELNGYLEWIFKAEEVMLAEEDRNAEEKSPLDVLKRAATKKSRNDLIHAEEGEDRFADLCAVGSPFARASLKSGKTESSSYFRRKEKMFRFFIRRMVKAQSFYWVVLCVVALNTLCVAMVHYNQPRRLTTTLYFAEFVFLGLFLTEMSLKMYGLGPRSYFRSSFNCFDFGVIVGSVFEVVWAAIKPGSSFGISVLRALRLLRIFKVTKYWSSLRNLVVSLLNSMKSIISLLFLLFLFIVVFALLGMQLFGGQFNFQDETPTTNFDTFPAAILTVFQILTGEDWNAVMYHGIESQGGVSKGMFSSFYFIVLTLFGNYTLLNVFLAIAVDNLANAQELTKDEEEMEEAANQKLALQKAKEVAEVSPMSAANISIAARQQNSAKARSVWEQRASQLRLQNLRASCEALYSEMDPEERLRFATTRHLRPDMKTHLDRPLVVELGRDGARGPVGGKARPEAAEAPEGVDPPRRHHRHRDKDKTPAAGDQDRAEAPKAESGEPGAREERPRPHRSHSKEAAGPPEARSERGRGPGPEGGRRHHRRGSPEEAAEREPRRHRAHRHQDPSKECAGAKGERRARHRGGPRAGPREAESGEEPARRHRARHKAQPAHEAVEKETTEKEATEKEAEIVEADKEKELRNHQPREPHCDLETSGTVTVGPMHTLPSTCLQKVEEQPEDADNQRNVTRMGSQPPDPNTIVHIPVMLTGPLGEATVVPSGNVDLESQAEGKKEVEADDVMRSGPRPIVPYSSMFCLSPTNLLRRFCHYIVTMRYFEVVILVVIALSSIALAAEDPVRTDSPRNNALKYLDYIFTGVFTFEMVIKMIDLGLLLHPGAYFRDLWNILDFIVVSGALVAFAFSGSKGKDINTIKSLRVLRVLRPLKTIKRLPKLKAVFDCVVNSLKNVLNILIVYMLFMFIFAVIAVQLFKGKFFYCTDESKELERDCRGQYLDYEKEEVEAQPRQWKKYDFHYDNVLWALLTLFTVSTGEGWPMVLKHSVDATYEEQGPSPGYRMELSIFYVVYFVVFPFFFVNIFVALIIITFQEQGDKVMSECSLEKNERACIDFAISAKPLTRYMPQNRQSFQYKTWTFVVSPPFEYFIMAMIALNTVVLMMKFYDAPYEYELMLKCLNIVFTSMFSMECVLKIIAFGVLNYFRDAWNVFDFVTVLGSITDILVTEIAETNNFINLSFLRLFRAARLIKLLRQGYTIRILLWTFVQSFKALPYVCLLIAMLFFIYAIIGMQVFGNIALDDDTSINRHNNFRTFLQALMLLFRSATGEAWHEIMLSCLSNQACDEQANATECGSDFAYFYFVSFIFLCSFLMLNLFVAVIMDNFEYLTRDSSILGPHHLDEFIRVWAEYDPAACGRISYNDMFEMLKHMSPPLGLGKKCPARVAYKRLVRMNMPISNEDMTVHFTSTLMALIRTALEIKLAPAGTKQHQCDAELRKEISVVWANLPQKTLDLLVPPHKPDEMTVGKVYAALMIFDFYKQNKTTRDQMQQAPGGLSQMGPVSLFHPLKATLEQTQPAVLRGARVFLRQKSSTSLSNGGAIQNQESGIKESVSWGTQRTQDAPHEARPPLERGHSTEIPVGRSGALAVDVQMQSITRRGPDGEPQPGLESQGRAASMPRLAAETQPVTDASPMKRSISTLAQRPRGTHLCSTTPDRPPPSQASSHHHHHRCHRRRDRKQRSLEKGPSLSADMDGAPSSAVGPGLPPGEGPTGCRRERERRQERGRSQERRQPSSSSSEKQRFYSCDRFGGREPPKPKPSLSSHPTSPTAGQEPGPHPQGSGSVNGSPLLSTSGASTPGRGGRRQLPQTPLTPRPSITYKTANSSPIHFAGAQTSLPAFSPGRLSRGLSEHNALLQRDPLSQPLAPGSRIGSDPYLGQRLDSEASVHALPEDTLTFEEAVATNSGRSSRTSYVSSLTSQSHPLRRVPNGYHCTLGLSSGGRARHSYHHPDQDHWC
T1 sequence (P54284 whole entry partner): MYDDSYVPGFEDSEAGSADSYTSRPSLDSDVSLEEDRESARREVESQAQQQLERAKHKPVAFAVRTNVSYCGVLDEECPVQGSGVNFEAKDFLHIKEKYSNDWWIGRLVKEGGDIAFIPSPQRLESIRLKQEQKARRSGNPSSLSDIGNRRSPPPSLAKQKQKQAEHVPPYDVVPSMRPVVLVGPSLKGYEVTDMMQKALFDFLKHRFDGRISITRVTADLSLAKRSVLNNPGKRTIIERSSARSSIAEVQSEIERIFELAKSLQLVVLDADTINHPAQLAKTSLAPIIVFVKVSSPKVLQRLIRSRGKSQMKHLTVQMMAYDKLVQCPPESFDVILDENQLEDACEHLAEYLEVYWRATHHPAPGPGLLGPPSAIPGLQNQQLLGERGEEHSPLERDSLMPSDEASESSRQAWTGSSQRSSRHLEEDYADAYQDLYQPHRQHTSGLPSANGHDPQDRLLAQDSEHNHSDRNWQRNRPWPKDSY
T1 sequence (P54289 25-956 partner limits assumed): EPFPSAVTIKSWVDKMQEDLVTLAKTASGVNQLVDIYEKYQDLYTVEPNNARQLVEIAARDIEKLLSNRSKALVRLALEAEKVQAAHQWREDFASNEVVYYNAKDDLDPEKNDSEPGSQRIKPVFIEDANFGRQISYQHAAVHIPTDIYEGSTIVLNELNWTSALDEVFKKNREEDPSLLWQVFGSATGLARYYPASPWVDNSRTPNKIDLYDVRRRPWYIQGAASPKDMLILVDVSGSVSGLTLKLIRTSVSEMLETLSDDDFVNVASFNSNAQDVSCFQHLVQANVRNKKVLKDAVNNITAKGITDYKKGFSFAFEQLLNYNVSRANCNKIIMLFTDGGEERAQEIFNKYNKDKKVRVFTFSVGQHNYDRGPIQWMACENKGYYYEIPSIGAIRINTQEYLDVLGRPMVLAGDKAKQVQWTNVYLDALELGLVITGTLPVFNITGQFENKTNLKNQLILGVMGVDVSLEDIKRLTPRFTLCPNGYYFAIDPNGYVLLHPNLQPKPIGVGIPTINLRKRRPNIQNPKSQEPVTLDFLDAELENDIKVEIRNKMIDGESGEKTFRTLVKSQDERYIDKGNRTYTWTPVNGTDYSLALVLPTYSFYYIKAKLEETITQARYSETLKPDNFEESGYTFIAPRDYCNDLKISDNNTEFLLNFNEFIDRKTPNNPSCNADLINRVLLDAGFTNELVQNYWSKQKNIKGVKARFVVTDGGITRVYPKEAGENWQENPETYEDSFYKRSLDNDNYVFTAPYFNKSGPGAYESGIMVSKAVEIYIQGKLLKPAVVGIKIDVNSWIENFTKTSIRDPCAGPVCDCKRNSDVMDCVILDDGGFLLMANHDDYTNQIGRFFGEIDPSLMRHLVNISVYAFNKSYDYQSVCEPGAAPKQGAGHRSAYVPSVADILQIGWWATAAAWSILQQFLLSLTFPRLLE
T1 sequence (P54289 957-1103 partner limits assumed): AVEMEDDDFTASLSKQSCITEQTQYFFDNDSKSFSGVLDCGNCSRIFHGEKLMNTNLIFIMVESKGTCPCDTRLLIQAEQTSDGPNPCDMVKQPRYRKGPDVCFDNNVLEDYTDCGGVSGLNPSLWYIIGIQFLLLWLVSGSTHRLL
Experimental: All cell culture reagents were procured from HyClone and other reagents were from Fisher. Recombinant HEK 293 cells expressing human N-type Ca channel (Millipore) were maintained in DMEM F12 containing 10% FBS and selection antibiotics at 37 °C in 5% CO2.
Cells were incubated at 30 °C in 5% CO2 overnight. The medium was removed and cells were loaded with Fluo8 dye (AAT Bioquest) at 37 °C and 30 °C, 30 min each in darkness. Cells were washed four times with wash buffer (16 mM Herep pH 7.2, 2 mM CaCl2, 1 mM MgCl2, 5 mM glucose, 140 mM choline chloride and 2 mM KCl) leaving 15 µL buffer after the last wash. Compounds of Formula (I), serially diluted, were added to the cell plate. The plates were incubated in darkness for 15 min. Cells were depolarized with 100 mM KCl and Ca influx was measured.

[2] = biological target: T1, human N-type Ca channel; test: Electrophysiological response, QPatch (depolarization -80 mV to +20 mV); settings: for inhibition at 10 µM: read-out: Qpatch Pulse=1 (percent inhibition); for N Type IC50 Data Qpatch Pulse=1 / N Type IC50 Data Qpatch Pulse=15: concentration range 0.01-0.3 µM
[3] = N Type IC50 Data Qpatch Pulse=15, Pulse=15, concentration range 0.3-10 µM
[4] = N Type IC50 Data Qpatch Pulse=1, Pulse=1, concentration range 0.01-1 µM
[5] = read-out: N Type IC50 Data Qpatch Pulse=15, Pulse=15, concentration range 0.01-1 µM
[6] = N Type IC50 Data Qpatch Pulse=1, Pulse=1, concentration range 0.3-10 µM
[7] = N Type IC50 Data Qpatch Pulse=15, Pulse=15, concentration range 0.01-1 µM

SMILES: COc1cnccc1-c1nc(C2CC(C)(C)OC(C)(C)C2)cn1-c1ccc(F)cc1 [Compound 2, 4-(1-(4-fluorophenyl)-4-(2,2,6,6 tetramethyltetrahydro-2H-pyran-4-yl)-1H-imidazol-2-yl)-3-methoxypyridine]
- IC50 [1]: 128 nM
- IC50 [2, 3]: 6200 nM

SMILES: CCOc1ccc(-n2cc(C3CC(C)(C)OC(C)(C)C3)nc2-c2ccncc2OC)cc1 [Compound 3, 4-(1-(4-ethoxyphenyl)-4-(2,2,6,6-tetramethyltetrahydro-2H-pyran-4-yl)-1H-imidazol-2-yl)-3-methoxypyridine]
- IC50 [1]: 376 nM
- IC50 [2, 4]: 830 nM
- IC50 [2, 5]: > 1000 nM

SMILES: COc1ccccc1-c1nc(C2CC(C)(C)OC(C)(C)C2)cn1-c1ccc(F)cc1 [Compound 4, 1-(4-fluorophenyl)-2-(2-methoxyphenyl)-4-(2,2,6,6-tetramethyltetrahydro-2H-pyran-4-yl)-1H-imidazole]
- IC50 [1]: 17 nM
- IC50 [2, 3]: 1060 nM

SMILES: COc1ccccc1-c1nc(C2CC(C)(C)OC(C)(C)C2)cn1-c1ccc(C)cn1 [Compound 6, 2-(2-(2-methoxyphenyl)-4-(2,2,6,6-tetramethyltetrahydro-2H-pyran-4-yl)-1H-imidazol-1-yl)-5-methylpyridine]
- IC50 [1]: 739 nM

SMILES: COc1ccc(-n2cc(C3CC(C)(C)OC(C)(C)C3)nc2-c2ccccc2OC)cc1 [Compound 7, 2-(2-methoxyphenyl)-1-(4-methoxyphenyl)-4-(2,2,6,6-tetramethyltetrahydro-2H-pyran-4-yl)-1H-imidazole]
- IC50 [1]: 113 nM
- IC50 [2, 6]: 1170 nM
- IC50 [2, 3]: 680 nM

SMILES: COc1ccccc1-c1nc(C2CC(C)(C)OC(C)(C)C2)cn1-c1cnc(C)nc1 [Compound 8, 5-(2-(2-methoxyphenyl)-4-(2,2,6,6-tetramethyltetrahydro-2H-pyran-4-yl)-1H-imidazol-1-yl)-2-mithylpyrimidine]
- IC50 [1]: > 10000 nM
- IC50 [2, 4]: 508 nM
- IC50 [2, 7]: > 1000 nM

SMILES: COc1ncccc1-c1nc(C2CC(C)(C)OC(C)(C)C2)cn1Cc1cccc(Cl)c1 [Compound 9, 3-(1-(3-chlorobenzyl)-4-(2,2,6,6-tetramethyltetrahydro-2H-pyran-4-yl)-1H-imidazol-2-yl)-2-methoxypyridine]
- IC50 [1]: 793 nM

SMILES: COc1cccnc1-c1nc(C2CC(C)(C)OC(C)(C)C2)cn1-c1ccc(C#N)cc1 [Compound 12, 4-(2-(3-methoxypyridin-2-yl)-4-(2,2,6,6-tetramethyltetrahydro-2H-pyran-4-yl)-1H-imidazol-1-yl)benzonitrile]
- IC50 [1]: 630 nM
- inhibition at 10 µM [2]: 28%

SMILES: COc1cnccc1-c1nc(C2CC(C)(C)OC(C)(C)C2)cn1-c1ccc(Cl)c(F)c1 [Compound 13, 4-(1-(4-chloro-3-fluorophenyl)-4-(2,2,6,6-tetramethyltetrahydro-2H-pyran-4-yl)-1H-imidazol-2-yl)-3-methoxypyridine]
- IC50 [1]: 200 nM
- IC50 [2, 4]: > 1000 nM
- IC50 [2, 5]: > 1000 nM

SMILES: COc1cccnc1-c1nc(C2CC(C)(C)OC(C)(C)C2)cn1-c1ccc(F)c(Cl)c1 [Compound 17, 2-(1-(3-chloro-4-fluorophenyl)-4-(2,2,6,6-tetramethyltetrahydro-2H-pyran-4-yl)-1H-imidazol-2-yl)-3-methoxypyridine]
- IC50 [1]: 591 nM
- IC50 [2, 6]: 4400 nM
- IC50 [2, 3]: 5200 nM

SMILES: COc1cnccc1-c1nc(C2CC(C)(C)OC(C)(C)C2)cn1-c1ccc(F)c(Cl)c1 [Compound 18, 4-(1-(3-chloro-4-fluorophenyl)-4-(2,2,6,6-tetramethyltetrahydro-2H-pyran-4-yl)-1H-imidazol-2-yl)-3-methoxypyridine]
- IC50 [1]: 108 nM
- IC50 [2, 4]: 694 nM
- IC50 [2, 7]: 376 nM

SMILES: COc1cccnc1-c1nc(C2CC(C)(C)OC(C)(C)C2)cn1-c1ccc(Cl)c(F)c1 [Compound 19, 2-(1-(4-chloro-3-fluorophenyl)-4-(2,2,6,6-tetramethyltetrahydro-2H-pyran-4-yl)-1H-imidazol-2-yl)-3-methoxypyridine]
- IC50 [1]: 263 nM
- IC50 [2, 4]: 966 nM
- inhibition at 1 µM ([2]; read-out: Qpatch Pulse=15 (percent inhibition)): 28%

SMILES: COc1ccncc1-c1nc(C2CC(C)(C)OC(C)(C)C2)cn1-c1ccc(F)c(Cl)c1 [Compound 20, 3-(1-(3-chloro-4-fluorophenyl)-4-(2,2,6,6-tetramethyltetrahydro-2H-pyran-4-yl)-1H-imidazol-2-yl)-4-methoxypyridine]
- IC50 [1]: 1060 nM
- IC50 [2, 4]: > 1000 nM
- IC50 [2, 5]: > 1000 nM

SMILES: COc1cccnc1-c1nc(C2CC(C)(C)OC(C)(C)C2)cn1-c1ccc(F)c(F)c1 [Compound 35, 2-(1-(3,4-difluorophenyl)-4-(2,2,6,6-tetramethyltetrahydro-2H-pyran-4-yl)-1H-imidazol-2-yl)-3-methoxypyridine]
- IC50 [1]: 838 nM

SMILES: COc1cccnc1-c1nc(C2CC(C)(C)OC(C)(C)C2)cn1-c1ccc(Cl)cc1 [Compound 67, 2-(1-(4-chlorophenyl)-4-(2,2,6,6-tetramethyltetrahydro-2H-pyran-4-yl)-1H-imidazol-2-yl)-3-methoxypyridine]
- IC50 [1]: 166 nM

SMILES: COc1ccccc1-c1nc(C2CC(C)(C)OC(C)(C)C2)cn1Cc1cncnc1 [Compound 100, 5-((2-(2-methoxyphenyl) - 4-(2,2,6,6-tetramethyltetrahydro-2H-pyran-4-yl)-1H-imidazol-1-yl)methyl) pyrimidine]
- IC50 [1]: 10000 nM

SMILES: COc1cccnc1-c1nc(C2(O)CC(C)(C)OC(C)(C)C2)cn1-c1ccc(Cl)cc1 [Compound 104, 4-(1-(4-chlorophenyl)-2-(3-methoxypyridin-2-yl)-1H-imidazol-4-yl)-2,2,6,6-tetramethyltetrahydro-2H-pyran-4-ol]
- IC50 [1]: 464 nM

SMILES: COc1ncccc1-c1nc(C2(O)CC(C)(C)OC(C)(C)C2)cn1-c1ccc(C#N)cc1 [Compound 115, 4-(4-(4-hydroxy-2,2,6,6-tetramethyltetrahydro-2H-pyran-4-yl)-2-(2-methoxypyridin-3-yl)-1H-imidazol-1-yl)benzonitrite]
- IC50 [1]: 731 nM

SMILES: COc1ccccc1-c1nc(C2=CC(C)(C)OC(C)(C)C2)cn1-c1ccc(C#N)c(F)c1 [Compound 126]
- inhibition at 10 µM [2]: 29%

Continued, values first:

- IC50 [1]: 191 nM
- IC50 [2, 6]: 5900 nM
SMILES: COc1ccccc1-c1nc(C2CC(C)(C)OC(C)(C)C2)cn1-c1ccc(C)nc1 [Compound 5, 5-(2-(2-methoxyphenyl)-4-(2,2,6,6-tetramethyltetrahydro-2H-pyran-4-yl)-1H-imidazol-1-yl)-2-methylpyridine]

- IC50 [1]: 2700 nM
- IC50 [2, 4]: 266 nM
- IC50 [2, 7]: > 1000 nM
SMILES: COc1ccccc1-c1nc(C2CC(C)(C)OC(C)(C)C2)cn1-c1ccc(Cl)c(C#N)c1 [Compound 14, 2-chloro-5-(2-(2-methoxyphenyl)-4-(2,2,6,6-tetramethyltetrahydro-2H-pyran-4-yl)-1H-imidazol-1-yl)benzonitrile]

- IC50 [1]: 256 nM
- N Type IC50 Data Qpatch Pulse=1 [2]: poor fit(0.01-0.3 µM)
- N Type IC50 Data Qpatch Pulse=15 ([2]; Pulse=15): poor fit(0.01-0.3 µM)
SMILES: COc1ncccc1-c1nc(C2CC(C)(C)OC(C)(C)C2)cn1-c1ccc(C#N)c(C)c1 [Compound 15, 4-(2-(2-methoxypyridin-3-yl)-4-(2,2,6,6-tetramethyltetrahydro-2H-pyran-4-yl)-1H-imidazol-1-yl)-2-methylbenzonitrile]

- IC50 [1]: 359 nM
- N Type IC50 Data Qpatch Pulse=1 [2]: poor fit(0.01-0.3 µM)
- N Type IC50 Data Qpatch Pulse=15 ([2]; Pulse=15): poor fit(0.01-0.3µM)
SMILES: COc1ncccc1-c1nc(C2CC(C)(C)OC(C)(C)C2)cn1-c1ccc(F)c(F)c1F [Compound 16, 2-methoxy-3-(4-(2,2,6,6-tetramethyltetrahydro-2H-pyran-4-yl)-1-(2,3,4-trifluorophenyl)-1H-imidazol-2-yl)pyridine]

- IC50 [1]: 119 nM
- IC50 [2, 4]: 639 nM
SMILES: COc1ccccc1-c1nc(C2CC(C)(C)OC(C)(C)C2)cn1-c1ccc(C#N)c(C)c1 [Compound 21, 4-(2-(2-methoxyphenyl)-4-(2,2,6,6-tetramethyltetrahydro-2H-pyran-4-yl)-1H-imidazol-1-yl)-2-methylbenzonitrile]

- IC50 [1]: 75 nM
- IC50 [2, 4]: 590 nM
- IC50 [2, 7]: 847 nM
SMILES: COc1ccccc1-c1nc(C2CC(C)(C)OC(C)(C)C2)cn1-c1ccc(C)c(C#N)c1 [Compound 22, 5-(2-(2-methoxyphenyl)-4-(2,2,6,6-tetramethyltetrahydro-2H-pyran-4-yl)-1H-imidazol-1-yl)-2-methylbenzonitrile]

- IC50 [1]: 310 nM
- IC50 [2, 5]: > 1000 nM
SMILES: COc1ccc(-n2cc(C3CC(C)(C)OC(C)(C)C3)nc2-c2cccnc2OC)cc1F [Compound 23, 3-(1-(3-fluoro-4-methoxyphenyl)-4-(2,2,6,6-tetramethyltetrahydro-2H-pyran-4-yl)-1H-imidazol-2-yl)-2-methoxypyridine]

- IC50 [1]: 7150 nM
- IC50 [2, 5]: > 1000 nM
SMILES: COc1cc(-n2cc(C3CC(C)(C)OC(C)(C)C3)nc2-c2cccnc2OC)ccc1F [Compound 24, 3-(1-(4-fluoro-3-methoxyphenyl)-4-(2,2,6,6-tetramethyltetrahydro-2H-pyran-4-yl)-1H-imidazol-2-yl)-2-methoxypyridine]

- IC50 [1]: 818 nM
- IC50 [2, 4]: > 1000 nM
- IC50 [2, 5]: > 1000 nM
SMILES: COc1ncccc1-c1nc(C2CC(C)(C)OC(C)(C)C2)cn1-c1ccc(C)c(C#N)c1 [Compound 25, 5-(2-(2-methoxypyridin-3-yl)-4-(2,2,6,6-tetramethyltetrahydro-2H-pyran-4-yl)-1H-imidazol-1-yl)-2-methylbenzonitrile]
